According to BigSolDB 2.1:

CC1=NNC(=O)N(/N=C/c2cccnc2)C1
solubility (mole fraction)
Details | 278.15 K | 283.15 K | 288.15 K | 293.15 K | 298.15 K | 303.15 K | 308.15 K | 313.15 K | 318.15 K
in 1,4-dioxane | – | – | 0.000462 | 0.00054 | 0.000629 | 0.000728 | 0.000842 | 0.000964 | 0.0011
in DMF | 0.0031 | 0.00347 | 0.00398 | 0.00451 | 0.00515 | 0.00582 | 0.00656 | 0.00738 | 0.00832
in DMSO | – | – | – | 0.00762 | 0.00862 | 0.00985 | 0.0112 | 0.0126 | 0.0144
in NMP | 0.00163 | 0.00189 | 0.0022 | 0.00255 | 0.00295 | 0.00338 | 0.00389 | 0.00444 | 0.00506
in isopropanol | 0.000198 | 0.000232 | 0.00028 | 0.000331 | 0.000391 | 0.000461 | 0.00054 | 0.000625 | 0.000729
in n-butanol | 0.000159 | 0.00019 | 0.000229 | 0.000277 | 0.000332 | 0.000389 | 0.00046 | 0.000537 | 0.000635
